Assay results taken from the NIST ThermoML archive (doi:10.1016/j.jct.2017.10.017).
Numbers after ± are expanded uncertainties.

Conditions: for Glass transition temperature: DSC; for Normal melting temperature: Crystal, DTA

Row | Glass transition temperature [°C] | Normal melting temperature [°C] | SMILES
1 | -49 ± 6 |  | CCCC[N+](C)(CCO)CCO.[Br-] [N,N-bis(2-hydroxyethyl)-N-methylbutan-1-aminium bromide]
2 |  | 47 ± 6 | CCCCCCCCCC[N+](C)(CCO)CCO.[Br-] [N,N-bis(2-hydroxyethyl)-N-methyldecan-1-aminium bromide]
3 | -47 ± 6 |  | CCCCCC[N+](C)(CCO)CCO.[Br-] [N,N-bis(2-hydroxyethyl)-N-methylhexan-1-aminium bromide]
4 |  | 27 ± 6 | CCCCCCCC[N+](C)(CCO)CCO.[Br-] [N,N-bis(2-hydroxyethyl)-N-methyloctan-1-aminium bromide]
5 | -50 ± 6 |  | CCCC[N+](CCO)(CCO)CCCC.[Br-] [N-butyl-N,N-bis(2-hydroxyethyl)butan-1-aminium bromide]
